# Measured values: ChEMBL document CHEMBL2062415, “Steroids from Commiphora mukul display antiproliferative effect against human prostate cancer PC3 cells via induction of apoptosis” (Bioorg Med Chem Lett, 2012)
# Calls of active or inactive are those of the source. No cut-off for these calls is given here.
# Experiments:
# PC-3 [1] = assay: Induction of apoptosis in human PC3 cells assessed as late apoptotic cells at 20 uM after 48 hrs by annexinV/propidium iodide staining-based FITC analysis relative to control; assay type: functional
# MCF7 [2] = assay: Induction of apoptosis in human MCF7 cells assessed as accumulation at G0/G1 phase at 5 uM after 48 hrs by propidium iodide staining-based flow cytometric analysis (reference value: 67.46%); assay type: functional
# K562 [3] = assay: Induction of apoptosis in human K562 cells assessed as necrotic cells at 10 uM after 48 hrs by annexinV/propidium iodide staining-based FITC analysis (reference value: 1.19%); assay type: functional
# DU-145 [4] = assay: Induction of apoptosis in human DU145 cells assessed as early apoptotic cells at 10 uM after 48 hrs by annexinV/propidium iodide staining-based FITC analysis (reference value: 2.34%); assay type: functional
# K562 [5] = assay: Induction of apoptosis in human K562 cells assessed as necrotic cells at 1 uM after 48 hrs by annexinV/propidium iodide staining-based FITC analysis (reference value: 1.19%); assay type: functional
# PC-3 [6] = assay: Induction of apoptosis in human PC3 cells assessed as early apoptotic cells after 48 hrs by annexinV/propidium iodide staining-based FITC analysis relative to control; assay type: functional, cell-based
# PC-3 [7] = assay: Cell cycle arrest in human PC3 cells assessed as accumulation at G0/G1 phase at 5 uM after 48 hrs by propidium iodide staining-based flow cytometric analysis relative to control; assay type: functional
# DU-145 [8] = assay: Induction of apoptosis in human DU145 cells assessed as accumulation at S phase at 10 uM after 48 hrs by propidium iodide staining-based flow cytometric analysis (reference value: 11.48%); assay type: functional
# PC-3 [9] = assay: Cell cycle arrest in human PC3 cells assessed as accumulation at S phase at 10 uM after 48 hrs by propidium iodide staining-based flow cytometric analysis relative to control; assay type: functional
# MCF7 [10] = assay: Induction of apoptosis in human MCF7 cells assessed as late apoptotic cells at 20 uM after 48 hrs by annexinV/propidium iodide staining-based FITC analysis (reference value: 3.57%); assay type: functional
# PC-3 [11] = assay: Decrease in Bcl-2 protein level in human PC3 cells at 5 uM after 48 hrs by Western blot analysis; assay type: functional, cell-based
# MCF7 [12] = assay: Induction of apoptosis in human MCF7 cells assessed as accumulation at G2/M phase at 5 uM after 48 hrs by propidium iodide staining-based flow cytometric analysis (reference value: 9.55%); assay type: functional
# MCF7 [13] = assay: Induction of apoptosis in human MCF7 cells assessed as accumulation at G2/M phase at 20 uM after 48 hrs by propidium iodide staining-based flow cytometric analysis (reference value: 9.55%); assay type: functional
# MCF7 [14] = assay: Induction of apoptosis in human MCF7 cells assessed as accumulation at S phase at 10 uM after 48 hrs by propidium iodide staining-based flow cytometric analysis (reference value: 22.99%); assay type: functional
# MCF7 [15] = assay: Induction of apoptosis in human MCF7 cells assessed as accumulation at S phase at 20 uM after 48 hrs by propidium iodide staining-based flow cytometric analysis (reference value: 22.99%); assay type: functional
# K562 [16] = assay: Induction of apoptosis in human K562 cells assessed as early apoptotic cells at 1 uM after 48 hrs by annexinV/propidium iodide staining-based FITC analysis (reference value: 2.08%); assay type: functional
# DU-145 [17] = assay: Induction of apoptosis in human DU145 cells assessed as accumulation at G0/G1 phase at 20 uM after 48 hrs by propidium iodide staining-based flow cytometric analysis (reference value: 72.11%); assay type: functional
# MCF7 [18] = assay: Induction of apoptosis in human MCF7 cells assessed as necrotic cells at 5 uM after 48 hrs by annexinV/propidium iodide staining-based FITC analysis (reference value: 8.28%); assay type: functional
# MCF7 [19] = assay: Induction of apoptosis in human MCF7 cells assessed as early apoptotic cells at 10 uM after 48 hrs by annexinV/propidium iodide staining-based FITC analysis (reference value: 5.48%); assay type: functional
# K562 [20] = assay: Induction of apoptosis in human K562 cells assessed as accumulation at S phase at 1 uM after 48 hrs by propidium iodide staining-based flow cytometric analysis (reference value: 45.67%); assay type: functional
# DU-145 [21] = assay: Induction of apoptosis in human DU145cells assessed as late apoptotic cells at 20 uM after 48 hrs by annexinV/propidium iodide staining-based FITC analysis (reference value: 2.78%); assay type: functional
# MCF7 [22] = assay: Induction of apoptosis in human MCF7 cells assessed as necrotic cells at 10 uM after 48 hrs by annexinV/propidium iodide staining-based FITC analysis (reference value: 8.28%); assay type: functional
# K562 [23] = assay: Induction of apoptosis in human K562 cells assessed as accumulation at G0/G1 phase at 10 uM after 48 hrs by propidium iodide staining-based flow cytometric analysis (reference value: 38.61%); assay type: functional
# PC-3 [24] = assay: Induction of apoptosis in human PC3 cells assessed as necrotic cells at 10 uM after 48 hrs by annexinV/propidium iodide staining-based FITC analysis relative to control; assay type: functional
# MCF7 [25] = assay: Induction of apoptosis in human MCF7 cells assessed as accumulation at S phase at 5 uM after 48 hrs by propidium iodide staining-based flow cytometric analysis (reference value: 22.99%); assay type: functional
# K562 [26] = assay: Cytotoxicity against human K562 cells assessed as cell viability at 10 uM after 24 hrs by MTT assay; assay type: functional; details: K562, 24 h, read-out: Activity
# PC-3 [27] = assay: Cell cycle arrest in human PC3 cells assessed as accumulation at G0/G1 phase at 20 uM after 48 hrs by propidium iodide staining-based flow cytometric analysis relative to control; assay type: functional
# DU-145 [28] = assay: Induction of apoptosis in human DU145 cells assessed as late apoptotic cells at 40 uM after 48 hrs by annexinV/propidium iodide staining-based FITC analysis (reference value: 2.78%); assay type: functional
# PC-3 [29] = assay: Cell cycle arrest in human PC3 cells assessed as accumulation at S phase at 20 uM after 48 hrs by propidium iodide staining-based flow cytometric analysis relative to control; assay type: functional
# K562 [30] = assay: Induction of apoptosis in human K562 cells assessed as early apoptotic cells at 5 uM after 48 hrs by annexinV/propidium iodide staining-based FITC analysis (reference value: 2.08%); assay type: functional
# K562 [31] = assay: Induction of apoptosis in human K562 cells assessed as accumulation at G0/G1 phase at 5 uM after 48 hrs by propidium iodide staining-based flow cytometric analysis (reference value: 38.61%); assay type: functional
# K562 [32] = assay: Induction of apoptosis in human K562 cells assessed as late apoptotic cells at 10 uM after 48 hrs by annexinV/propidium iodide staining-based FITC analysis (reference value: 2.55%); assay type: functional
# MCF7 [33] = assay: Induction of apoptosis in human MCF7 cells assessed as early apoptotic cells at 20 uM after 48 hrs by annexinV/propidium iodide staining-based FITC analysis (reference value: 5.48%); assay type: functional
# DU-145 [34] = assay: Induction of apoptosis in human DU145 cells assessed as accumulation at G0/G1 phase at 40 uM after 48 hrs by propidium iodide staining-based flow cytometric analysis (reference value: 72.11%); assay type: functional
# PC-3 [35] = assay: Induction of apoptosis in human PC3 cells assessed as necrotic cells at 20 uM after 48 hrs by annexinV/propidium iodide staining-based FITC analysis relative to control; assay type: functional
# PC-3 [36] = assay: Induction of apoptosis in human PC3 cells assessed as late apoptotic cells at 10 uM after 48 hrs by annexinV/propidium iodide staining-based FITC analysis relative to control; assay type: functional
structure (smiles),measurement,setting,value
CC[C@H](/C=C/[C@@H](C)[C@H]1CC[C@H]2[C@H]3[C@H]([C@H](O)C[C@]12C)[C@@]1(C)CC[C@H](O)CC1=C[C@H]3O)C(C)C,Activity,PC-3 [1],42.21%
same,Activity,MCF7 [2],72.36%
same,Activity,K562 [3],0.78%
same,Activity,DU-145 [4],4.02%
same,Activity,K562 [5],0.5%
same,Activity,PC-3 [6],Dose-dependent effect
same,Activity,PC-3 [7],59%
same,Activity,DU-145 [8],12.94%
same,Activity,PC-3 [9],23.27%
same,Activity,MCF7 [10],6.76%
same,inhibition,PC-3 [11],Active
same,Activity,MCF7 [12],8.56%
same,Activity,MCF7 [13],24.7%
same,Activity,MCF7 [14],18.92%
same,Activity,MCF7 [15],19.37%
same,Activity,K562 [16],1.99%
same,Activity,DU-145 [17],67.88%
same,Activity,MCF7 [18],3.47%
same,Activity,MCF7 [19],6.81%
same,Activity,K562 [20],45.77%
same,Activity,DU-145 [21],5.73%
same,Activity,MCF7 [22],4.47%
same,Activity,K562 [23],39.64%
same,Activity,PC-3 [24],2.09%
same,Activity,MCF7 [25],19.09%
same,viability at 10 µM,K562 [26],32%
same,Activity,PC-3 [27],55.82%
same,Activity,DU-145 [28],13.63%
same,Activity,PC-3 [29],14.34%
same,Activity,K562 [30],3.77%
same,Activity,K562 [31],40.79%
same,Activity,K562 [32],2.62%
same,Activity,MCF7 [33],9.91%
same,Activity,DU-145 [34],46.47%
same,Activity,PC-3 [35],2.79%
same,Activity,PC-3 [36],37.79%
